The results in this text go back to US10227344B2, “CK2 inhibitors, compositions and methods thereof” (Polaris Pharmaceuticals, Inc., priority 2016, dated 2019).

Counter-ions that a name gives are not always drawn.

The assay deals with purified CK2α enzyme (Homo sapiens, UniProt P68400). Description: CK2 Protein Kinase Inhibition Assay (coupled PK/LDH assay). It is filed as biochemical. Conditions: CK2 enzyme 25 nM, 100 μM ATP, 37° C., Morrison equation. The method, then: A coupled PK (pyruvate kinase)/LDH (lactate dehydrogenase) assay was used to measure compounds' ability to inhibit purified CK2α enzyme.
Chain of purified CK2α enzyme (P68400 whole entry): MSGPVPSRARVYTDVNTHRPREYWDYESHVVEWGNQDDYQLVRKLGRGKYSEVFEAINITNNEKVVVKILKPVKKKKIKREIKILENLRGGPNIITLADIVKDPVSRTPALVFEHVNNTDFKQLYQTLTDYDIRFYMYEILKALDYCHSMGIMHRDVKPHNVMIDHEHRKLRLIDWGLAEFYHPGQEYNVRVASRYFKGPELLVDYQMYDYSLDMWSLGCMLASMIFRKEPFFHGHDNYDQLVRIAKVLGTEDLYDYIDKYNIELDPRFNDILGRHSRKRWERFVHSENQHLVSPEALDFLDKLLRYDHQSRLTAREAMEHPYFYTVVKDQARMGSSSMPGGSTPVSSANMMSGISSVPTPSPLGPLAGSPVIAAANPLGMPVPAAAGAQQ
The ADP product of kinase CK2a is the cofactor for PK. Phospho(enol)pyruvate (PEP) PEP is metabolized by pyruvate kinase to yield pyruvate, which is the substrate for LDH.
Serially diluted compounds were pre-incubated for 10 min at 37° C. with and 1.5 mM […] peptide substrate, 6 U/ml PK and 10 U/ml LDH (purchased from Sigma-Aldrich), 100 μM ATP, 1.2 mM NADH, 4 mM PEP in the reaction buffer (50 mM Tris (pH 8.25), 0.1 M NaCl, 10 mM magnesium acetate). The reaction was initiated by the addition of an equal volume of purified CK2 enzyme (final concentration 25 nM) diluted in the reaction buffer. Absorbance at 340 nm was measured overtime (for 30 min) at 37° C.; as NADH was converted to NAD+ the absorbance decreases. Absorbance decrease rate (per min) was plotted against the compound concentration and Ki is determined by GraphPad Prism using Morrison equation. All data points were performed in triplicate and each compound was tested in at least two separate experiments.
To this end, K, values of less than 2.5 nM are labelled as “+++”, from 2.5 nM to 10 nM are labelled as “++”, and greater than 10 nM are labelled as “+”.
One may read the Ki as a measure of affinity in units of concentration, obtained from inhibition or displacement. Higher therefore signals lower affinity. `C[S+]([O-])Cc1cc(Nc2cc(Nc3ccccn3)n3ncc(C#N)c3n2)ccc1C1CC1` (racemic) [Example 54, (±)-5-((4-Cyclopropyl-3-((methylsulfinyl)methyl)phenyl)amino)-7-(pyridin-2-ylamino)pyrazolo[1,5-a]pyrimidine-3-carbonitrile] showed a Ki below 2.5 nM.

For the molecule `C[S+]([O-])Cc1cc(Nc2cc(Nc3cccnc3)n3ncc(C#N)c3n2)ccc1C1CC1` (racemic) [Example 55, (±)-5-((4-Cyclopropyl-3-((methylsulfinyl)methyl)phenyl)amino)-7-(pyridin-3-ylamino)pyrazolo[1,5-a]pyrimidine-3-carbonitrile], the Ki was below 2.5 nM.

For `C[S+]([O-])Cc1cc(Nc2cc(Nc3ccc(N)nc3)n3ncc(C#N)c3n2)ccc1C1CC1` (racemic) [Example 56, (±)-7-((6-Aminopyridin-3-yl)amino)-5-((4-cyclopropyl-3-((methylsulfinyl)methyl)phenyl)amino)pyrazolo[1,5-a]pyrimidine-3-carbonitrile], the Ki was below 2.5 nM.

The molecule `C[S+]([O-])Cc1cc(Nc2cc(Nc3ccc(N)cn3)n3ncc(C#N)c3n2)ccc1C1CC1` (racemic) [Example 57, (±)-7-((5-Aminopyridin-2-yl)amino)-5-((4-cyclopropyl-3-((methylsulfinyl)methyl)phenyl)amino)pyrazolo[1,5-a]pyrimidine-3-carbonitrile] had a Ki below 2.5 nM.

As to `CC(N)c1ccc(Nc2cc(NC3CC3)n3ncc(C#N)c3n2)cc1C[S+](C)[O-]` (racemic) [Example 58, (±)-5-((4-((R,S)-1-Aminoethyl)-3-((methylsulfinyl)methyl)phenyl)amino)-7-(cyclopropylamino)pyrazolo[1,5-a]pyrimidine-3-carbonitrile mono trifluoroacetic acid salt], the Ki lay in the range of 2.5 to 10 nM.

For the molecule `C[S+]([O-])Cc1cc(Nc2cc(NC3CC3)n3ncc(C#N)c3n2)ccc1C1(N)CC1` (racemic) [Example 59, (±)-5-((4-(1-Aminocyclopropyl)-3-((methylsulfinyl)methyl)phenyl)amino)-7-(cyclopropylamino)pyrazolo[1,5-a]pyrimidine-3-carbonitrile mono trifluoroacetic acid salt], the Ki is 2.5 to 10 nM.

In turn, `C/C(=C\CN)c1ccc(Nc2cc(NC3CC3)n3ncc(C#N)c3n2)cc1C[S+](C)[O-]` (racemic) [Example 60, (±)-(E)-5-((4-(4-aminobut-2-en-2-yl)-3-((methylsulfinyl)methyl)phenyl)amino)-7-(cyclopropylamino)pyrazolo[1,5-a]pyrimidine-3-carbonitrile mono trifluoroacetic acid salt] registered a Ki below 2.5 nM.

Turning to `C[S+]([O-])Cc1cc(Nc2cc(NC3CC3)n3ncc(C#N)c3n2)ccc1C1CCCNC1` (racemic) [Example 61, (±)-7-(Cyclopropylamino)-5-((3-((methylsulfinyl)methyl)-4-((R,S)-piperidin-3-yl)phenyl)amino)pyrazolo[1,5-a]pyrimidine-3-carbonitrile mono trifluoroacetic acid salt], the Ki is 2.5 to 10 nM.

The molecule `C[S+]([O-])Cc1cc(Nc2cc(NC3CC3)n3ncc(C#N)c3n2)ccc1C1=CCNC1` (racemic) [Example 62, (±)-7-(Cyclopropylamino)-5-((4-(2,5-dihydro-1H-pyrrol-3-yl)-3-((methylsulfinyl)methyl)phenyl)amino)pyrazolo[1,5-a]pyrimidine-3-carbonitrile mono trifluoroacetic acid salt] had a Ki of 2.5 to 10 nM.

Turning to `C[S+]([O-])Cc1cc(Nc2cc(NC3CC3)n3ncc(C#N)c3n2)ccc1C1CCNC1` (racemic) [Example 63, (±)-7-(Cyclopropylamino)-5-((3-((methylsulfinyl)methyl)-4-((R,S)-pyrrolidin-3-yl)phenyl)amino)pyrazolo[1,5-a]pyrimidine-3-carbonitrile mono trifluoroacetic acid salt], the Ki lay in the range of 2.5 to 10 nM.

The molecule `CC(CCN)c1ccc(Nc2cc(NC3CC3)n3ncc(C#N)c3n2)cc1C[S+](C)[O-]` (racemic) [Example 64, (±)-5-((4-(R,S)-4-Aminobutan-2-yl)-3-((methylsulfinyl)methyl)phenyl)amino)-7-(cyclopropylamino)pyrazolo[1,5-a]pyrimidine-3-carbonitrile mono trifluoroacetic acid salt] yielded a Ki of 2.5 to 10 nM.

In the case of `CN(CC1(N)CC1)c1ccc(Nc2cc(NC3CC3)n3ncc(C#N)c3n2)cc1C[S+](C)[O-]` (racemic) [Example 65, (±)-5-((4-(((1-Aminocyclopropyl)methyl)(methyl)amino)-3-((methylsulfinyl)methyl)phenyl)amino)-7-(cyclopropylamino)pyrazolo[1,5-a]pyrimidine-3-carbonitrile mono trifluoroacetic acid salt], the Ki was below 2.5 nM.

`CN(CC(C)(C)N)c1ccc(Nc2cc(NC3CC3)n3ncc(C#N)c3n2)cc1C[S+](C)[O-]` (racemic) [Example 67, (±)-5-((4-((2-Amino-2-methylpropyl)(methyl)amino)-3-((methylsulfinyl)methyl)phenyl)amino)-7-(cyclopropylamino)pyrazolo[1,5-a]pyrimidine-3-carbonitrile mono trifluoroacetic acid salt] had a Ki below 2.5 nM.

`C[S+]([O-])Cc1cc(Nc2cc(Nc3ccc(N)cn3)n3ncc(C#N)c3n2)ccc1N1CC[C@H](N)C1` (mixture of isomers) [Example 68, (±)-7-((5-Aminopyridin-2-yl)amino)-5-((4-((S)-3-aminopyrrolidin-1-yl)-3-((methylsulfinyl)methyl)phenyl)amino)pyrazolo[1,5-a]pyrimidine-3-carbonitrile]: the Ki is below 2.5 nM.

In turn, `CN(C)Cc1ccc(Nc2cc(Nc3ccc(C4CC4)c(C[S+](C)[O-])c3)nc3c(C#N)cnn23)nc1` (racemic) [Example 69, (±)-5-((4-Cyclopropyl-3-((methylsulfinyl)methyl)phenyl)amino)-7-((5-((dimethylamino)methyl)pyridin-2-yl)amino)pyrazolo[1,5-a]pyrimidine-3-carbonitrile] had a Ki below 2.5 nM.

Turning to `CS(=O)(=O)Cc1cc(Nc2cc(NC3CC3)n3ncc(C#N)c3n2)ccc1Cl` [Example 2, 5-((4-Chloro-3-((methylsulfonyl)methyl)phenyl)amino)-7-(cyclopropylamino)pyrazolo[1,5-a]pyrimidine-3-carbonitrile], the inhibition constant (Ki) is below 2.5 nM.

On to `C[S@@+]([O-])Cc1cc(Nc2cc(NC3CC3)n3ncc(C#N)c3n2)ccc1Cl` [Example 4, (R)(−)-5-((4-Chloro-3-((methylsulfinyl)methyl)phenyl)amino)-7-(cyclopropylamino)pyrazolo[1,5-a]pyrimidine-3-carbonitrile], for which the Ki is 2.5 to 10 nM.

Turning to `CS(=O)(=O)Cc1cc(Nc2cc(NC3CC3)n3ncc(C#N)c3n2)ccc1C#N` [Example 9, 5-((4-Cyano-3-((methylsulfonyl)methyl)phenyl)amino)-7-(cyclopropylamino)pyrazolo[1,5-a]pyrimidine-3-carbonitrile], the Ki is below 2.5 nM.

Turning to `CN(CCN)c1ccc(Nc2cc(NC3CC3)n3ncc(C#N)c3n2)cc1CS(C)(=O)=O` [Example 10, 5-((4-((2-Aminoethyl)(methyl)amino)-3-((methylsulfonyl)methyl)phenyl)amino)-7-(cyclopropylamino)pyrazolo[1,5-a]pyrimidine-3-carbonitrile mono trifluoroacetic acid salt], the Ki was below 2.5 nM.

On to `CS(=O)(=O)Cc1cc(Nc2cc(NC3CC3)n3ncc(C#N)c3n2)ccc1CCN` [Example 11, 5-((4-(2-Aminoethyl)-3-((methylsulfonyl)methyl)phenyl)amino)-7-(cyclopropylamino)pyrazolo[1,5-a]pyrimidine-3-carbonitrile mono trifluoroacetic acid salt], for which the Ki was below 2.5 nM.

In turn, `C[S+]([O-])Cc1cc(Nc2cc(NC3CC3)n3ncc(C#N)c3n2)ccc1N1CC[C@@H](N)C1` (stereo partly drawn) [Example 22, 5-((4-((R)-3-Aminopyrrolidin-1-yl)-3-(((R,S)-methylsulfinyl)methyl)phenyl)amino)-7-(cyclopropylamino)pyrazolo[1,5-a]pyrimidine-3-carbonitrile mono trifluoroacetic acid salt] returned a Ki below 2.5 nM.

For `C[S+]([O-])Cc1cc(Nc2cc(NC3CC3)n3ncc(C#N)c3n2)ccc1N1CC[C@H](N)C1` (stereo partly drawn) [Example 23, 5-((4-((S)-3-Aminopyrrolidin-1-yl)-3-(((R,S)-methylsulfinyl)methyl)phenyl)amino)-7-(cyclopropylamino)pyrazolo[1,5-a]pyrimidine-3-carbonitrile mono trifluoroacetic acid salt], the inhibition constant (Ki) is below 2.5 nM.

`C[S+]([O-])Cc1cc(Nc2cc(NC3CC3)n3ncc(C#N)c3n2)ccc1N1CCC[C@@H](N)C1` (stereo partly drawn) [Example 24, 5-((4-((R)-3-Aminopiperidin-1-yl)-3-(((R,S)-methylsulfinyl)methyl)phenyl)amino)-7-(cyclopropylamino)pyrazolo[1,5-a]pyrimidine-3-carbonitrile mono trifluoroacetic acid salt] had an inhibitory constant (Ki) below 2.5 nM.

As to `C[S+]([O-])Cc1cc(Nc2cc(NC3CC3)n3ncc(C#N)c3n2)ccc1N1CCC[C@H](N)C1` (stereo partly drawn) [Example 25, 5-((4-((S)-3-Aminopiperidin-1-yl)-3-(((R,S)-methylsulfinyl)methyl)phenyl)amino)-7-(cyclopropylamino)pyrazolo[1,5-a]pyrimidine-3-carbonitrile mono trifluoroacetic acid salt], the inhibition constant (Ki) was below 2.5 nM.
